Test results reported in patent US9504652B2 (Druggability Technologies IP Holdco (Jersey) Ltd., priority 2010, dated 2016).
Like-named read-outs stand apart in the source and are kept apart here.

Experiments:
human liver microsomes = details: cited from earlier work
[1] = Comparative dissolution test (wettability and redispersibility) in distillate water; assay type: physicochemical; details: 4.0 mg Aprepitant in 8.0 mL distillate water, stirred 10 minutes
PAMPA permeability = assay type: in vitro ADME; details: for Papp: PAMPA
Description: The sample containing the reference compound was a suspension of crystals visible by the naked eye, while the other two samples were opalescent colloid solutions. The receiver compartment was phosphate buffered saline with 1% sodium lauryl sulphate and 5% DMSO.

[2] = over 72 hours, single oral 300 mg dose of [14C]-Aprepitant; cited from earlier work
[3] = cited from earlier work

wettability and redispersibility / dissolution [1]: did not wet and did not dissolve
ratio of PAMPA permeability for FeSSIF and FaSSIF (PAMPA permeability; FeSSIF/FaSSIF): 10.7
Papp (PAMPA permeability; redispersed in FaSSIF): 0.044 ×10⁻⁶ cm/s
Papp (PAMPA permeability; redispersed in FeSSIF): 0.471 ×10⁻⁶ cm/s
SMILES: C[C@@H](O[C@H]1OCCN(Cc2n[nH]c(=O)[nH]2)[C@H]1c1ccc(F)cc1)c1cc(C(F)(F)F)cc(C(F)(F)F)c1 [Aprepitant, 5-[[(2R,3S)-2-[(1R)-1-[3,5-bis(trifluoromethyl)phenyl]ethoxy]-3-(4-fluorophenyl)-4-morpholinyl]methyl]-1,2-dihydro-3H-1,2,4-triazol-3-one]
CYP enzymes with no metabolism detected (human liver microsomes): No metabolism by CYP2D6, CYP2C9, or CYP2E1 was detected
metabolizing CYP enzymes (human liver microsomes): metabolized primarily by CYP3A4 with minor metabolism by CYP1A2 and CYP2C19
share of the radioactivity in plasma accounted for by Aprepitant [2]: approximately 24%
solubility ([3]; acetonitrile): slightly soluble
solubility ([3]; ethanol): sparingly soluble
solubility ([3]; isopropyl acetate): sparingly soluble
solubility ([3]; water): practically insoluble
